According to US20250093329A1, “SCREENING OF COMPOUNDS” (THE UNIVERSITY OF TULSA, priority 2022, published 2025):

Legend:
Type in all cases: cell-based
each cell line tested = test: ATP levels by CellTiter-Glo, all cell lines of Table 1 taken together; conditions: 100 μM compound with 2-DG, Table 1 cell lines
Description: A wide variety of ATP luminescing detection reagents are available commercially. So long as the reagent produces a luminescence in the presence of ATP, the reagent will be suitable for use in the present method. Suitable reagents include but are not limited to any ATP dependent luciferase such as but not limited to firefly luciferase, other modified luciferase based reagents, i.e. luciferase derivatives. According to the rapid method for determining the anti-cancer activity of a compound, a sample of living cells is distributed across a number of testing wells. Typically, 96-well plates are used; however, the number of wells is not critical to the current method. When using a 96-well plate the number of living cells will commonly be about 20,000. […] The sample wells contain a cell growth medium to promote cell health and growth and an additive to prevent bacterial contamination of the wells. One common example of the cell growth medium is DMEM with 10% FBS as described above. One example of the additive to prevent bacterial contamination is a solution of penicillin G and streptomycin referred to commonly as Pen-Strep. The Pen-Strep solution typically contains 5000 units of penicillin G and 5000 micrograms of streptomycin. Thus, the rapid determination of anti-cancer compounds can be carried out using the following method. • The desired number of cells are distributed in a 96-well plate containing 100 μL DMEM plus 10% FBS with optional Pen-Strep. • After 24 hours, cells are treated with the compound of interest or a 5% solution of dimethyl sulfoxide (DMSO) in water as a control. • The time period for exposure to the compound of interest and the DMSO control will vary depending on the luminescing detection reagent. However, when using a commercially available reagent such as resazurin (CellTiter Blue commercially available from Promega) or luciferase or a luciferase derivative (CellTiter Glo commercially available from Promega) the time period can be readily determined with reference to literature from the commercial source. Other luminescing detection agents can also be used with minimal experimentation to determine the desired compound exposure time. • Upon completion of the time period for exposure to the compound of interest or the DMSO, 10 μL of the luminescing detection reagent is added and the cells are lysed by a detergent added along with the luminescing detection reagent. • When the reagent is resazurin, as found in CellTiter-Blue the time period for exposure to the compound of interest and the DMSO will be about 24 hours. • When the reagent is luciferase or a luciferase derivative as found in CellTiter-Glo the time period for exposure to the compound of interest and the DMSO will be about 30 minutes to four hours. • The luminescing detection reagent is added over a period of time. • When using resazurin, the time period for the addition of the 10 μl volume takes place over a period of about one to four hours. • When using luciferase or a luciferase derivative, the time period is about 3 minutes to about 7 minutes, typically about 5 minutes. • During the time period of addition of the luminescing detection reagent the resulting luminescence is measured using conventional methods and devices. […] If the compound of interest deactivates the cell, then the cell produces less or no ATP. As a result, the cells in the well treated with the compound of interest will have a lower luminescence value as compared to the cells in wells treated with DMSO. • The value for the cells treated with the compound of interest is reported as a “percent of control” (POC) value. The determination of POC is calculated by dividing the averaged response from duplicate wells containing the cells as treated with the compound of interest by the average response of duplicate control wells which contain only cells and DMSO (in other words, a blank control experiment). […]

[1] = tested on: HEK293 (kidney cancer) cells; test: Traditional versus rapid screening (FIG. 15); conditions: DMEM, CellTiter-Glo 1 hr, with or without 2DG, versus CellTiter-Blue/CellTiter-Glo 24 hr
Description: FIG. 15 provides a comparison of traditional cytotoxicity testing the improved testing method described herein using HEK293 cells (kidney cancer), DMEM media, and the library sulfonamide compounds 1-30 found in FIGS. 1A-1C.
When used to identify compounds for specific patients, the following steps will be carried out: • Individualized patient cells will be acquired from a tumor biopsy and cultured/grown in patient blood serum and/or plasma. (In most instances the cells will be obtained using a needle biopsy; i.e. fine needle aspiration biopsy. Optionally, the cells may be obtained from resected tumor (i.e. excisional biopsy, which is an attempt at complete tumor removal), and/or a core biopsy; (i.e. removal of part of the tumor). Alternatively, cells may be obtained from blood draw samples, which would contain leukemia, lymphoma and myeloma cells.) • The cells (as few as 100 cells per experiment) will be screened directly in patient blood serum and/or plasma in the absence or presence of glycolysis inhibitor, 2-deoxyglucose (2DG) using a rapid (1-2 hr) screening assay (CellTiter-Glo, or “CTG”). • NOTE: while the discussion herein focuses on CTG, other assays suitable for measuring changes in ATP levels will perform equally as well. […] DMEM contains glucose, but L15 has substituted glucose with galactose. […]

H293 = test: Cytotoxicity testing, CellTiter-Blue assay, 24 hour (FIG. 3); conditions: 100 μM, 24 hour compound incubation
Procedure: (§1) The cytotoxicity tests were carried out in the following manner. Living cells are known to convert resazurin to the fluorescent compound resorufin. Test systems which rely upon this reaction are commercially available. One such test is known at the Cell Titer Blue Cell Viability test assay from Promega. Cell cultures for each of the identified cancer lines were obtained from ATCC and maintained in Dulbecco's Modified Eagle Medium (DMEM) supplemented with 10% fetal bovine serum (FBS) and pen/strep. As known to those skilled in the art, DMEM typically includes the components identified below.
(§2) The test method provides for incubating the cell cultures at temperatures which correspond to the range of body temperatures experienced by the patient from which the cancer cells were obtained. Typically, incubation temperatures will be between the temperatures of 36.1° C. and 37.2° C. In most cases incubation will occur at 37° C. Additionally, the cell cultures are kept under an atmosphere which mimics cell conditions of the tumor within the patient's body. In most cases, the tumor microenvironment (TME) is characterized by hypoxia (low oxygen) and may also be characterized by hypercapnia (increased CO2). Hypercapnia results from decreased blood flow which limits CO2 elimination. Restricted CO2 elimination leads to increased HCO3^− conversion to CO2 in order to neutralize lactate as altered tumor cell metabolism produces more CO2 than normal. Normal tissue averages about 5% oxygen with oxygen ranges from about 3% to 7.4%. […] In the case of CO2, normocapnic is around 5% CO2, while hypercapnic can rise to 10% CO2. Therefore, to mimic the environment of the tumor the method utilizes an incubator designed to provide the optimal gaseous environment corresponding to that of the tumor. Thus, the incubator will be capable of maintaining an atmosphere having an oxygen content in the range of […] and a CO2 in the range of 1% to 10%.
(§3) After allowing for proliferation of the cells, the cells were distributed across a plurality of test wells containing from 100 μL DMEM plus 10% FBS and allowed to attach to the surface of the test wells. Typically, the time for attachment will require about 12 hours to about 18 hours. […] Following treatment of the cells with the N-benzyl sulfonamide or control, the toxicity of the compound to the cells will be determined by addition of a luminescing agent. […] Subsequently, the fluorescence of resazurin is measured by excitation at 560 nm and recording the emission at 590 nm within an instrument configured to measure fluorescence intensity. Two commercially available systems are the BioTek Cytation 5 plate reader and the Promega Glomax Multi+detection system. […]

NCI-H196 = test: as above; conditions: 100 μM, 24 hour compound incubation
Procedure: as §1, §2, §3

Structure (SMILES) | effectiveness across the cell lines, with 2-DG (each cell line tested) | further results
Cc1ccc(S(=O)(=O)NCc2c[nH]c3ccccc23)cc1 [Compound 1, N-[(1H-indol-3-yl)methyl]-4-methylbenzenesulfonamide] | little effect | –
O=S(=O)(NCc1c[nH]c2ccccc12)c1ccccc1 [Compound 3, N-[(1H-indol-3-yl)methyl]benzenesulfonamide] | little effect | –
CC(=O)n1cc(CNS(=O)(=O)c2ccc(Cl)cc2)c2ccccc21 [Compound 4, N-[(1-acetyl-1H-indole-3-yl)methyl]-4-chlorobenzenesulfonamide] | little effect | –
Cc1ccc(S(=O)(=O)NCc2c[nH]c3cccc(Br)c23)cc1 [Compound 5, N-[(4-bromo-1H-indol-3-yl)methyl]-4-methylbenzenesulfonamide] | – | sensitivity of rapid assays versus traditional methods (FIG. 15) [1]: enhanced sensitivity; effectiveness, percent reduction in cell viability (FIG. 3) (H293): effective; effectiveness, percent reduction in cell viability (FIG. 3) (NCI-H196): effectiveness
Cc1cccc2c(CNS(=O)(=O)c3ccccc3)c[nH]c12 [Compound 6, N-[(7-methyl-1H-indol-3-yl)methyl]benzenesulfonamide] | – | effectiveness, percent reduction in cell viability (FIG. 3) (H293): effective
Cc1ccc(S(=O)(=O)NCc2ccc3ncccc3c2)cc1 [Compound 22, 4-methyl-N-(quinolin-6-ylmethyl)benzenesulfonamide] | little effect | –
COc1ccc(S(=O)(=O)NCc2c[nH]c3ccccc23)cc1 [Compound 23, N-(1H-indol-3-ylmethyl)-4-methoxybenzenesulfonamide] | little effect | –
